In PubChem BioAssay AID248 (DTP/NCI, 2004):
Inconclusive results and toxic doses are left out. Cut-off read from the data, not from the text of the source: active = T/C of 150% or more; inactive = T/C below 125%.

System: L1210 leukemia ip in BDF1 mice, survival T/C
Assay: NCI In Vivo Anticancer Drug Screen. Data for tumor model L1210 Leukemia (intraperitoneal) in B6D2F1 (BDF1) mice
Settings: endpoint: mean survival time, higher = longer survival
Outline: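 Survival endpoint. Drug-treated group vs vehicle group, expressed as T divided by C. Tumor passaged by transplantation.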

[1] = dose: 100.0 mg/kg/injection, schedule: Q04DX003 (ip), vehicle: Klucel (hydroxypropylcellulose) (HPC)
[2] = dose: 200.0 mg/kg/injection, schedule: Q04DX003 (ip), vehicle: Klucel (hydroxypropylcellulose) (HPC)
[3] = dose: 400.0 mg/kg/injection, schedule: Q04DX003 (ip), vehicle: Klucel (hydroxypropylcellulose) (HPC)
[4] = dose: 75.0 mg/kg/injection, schedule: Q01DX009 (ip), vehicle: Klucel (hydroxypropylcellulose) (HPC)
[5] = dose: 400.0 mg/kg/injection, schedule: Q01DX001 (ip), vehicle: Klucel (hydroxypropylcellulose) (HPC)
[6] = dose: 100.0 mg/kg/injection, schedule: Q01DX009 (ip), vehicle: Klucel (hydroxypropylcellulose) (HPC)
[7] = dose: 200.0 mg/kg/injection, schedule: Q01DX009 (ip), vehicle: Klucel (hydroxypropylcellulose) (HPC)
[8] = dose: 100.0 mg/kg/injection, schedule: Q04DX002 (ip), vehicle: saline with Tween-80
[9] = dose: 400.0 mg/kg/injection, schedule: Q04DX002 (ip), vehicle: saline with Tween-80
[10] = dose: 100.0 mg/kg/injection, schedule: Q01DX001 (ip), vehicle: saline
[11] = dose: 200.0 mg/kg/injection, schedule: Q01DX001 (ip), vehicle: saline
[12] = dose: 400.0 mg/kg/injection, schedule: Q01DX001 (ip), vehicle: saline
[13] = dose: 50.0 mg/kg/injection, schedule: Q01DX001 (ip), vehicle: saline
[14] = dose: 100.0 mg/kg/injection, schedule: Q04DX003 (ip), vehicle: other
[15] = dose: 200.0 mg/kg/injection, schedule: Q04DX003 (ip), vehicle: other
[16] = dose: 25.0 mg/kg/injection, schedule: Q04DX002 (ip), vehicle: saline
[17] = dose: 50.0 mg/kg/injection, schedule: Q04DX002 (ip), vehicle: saline
[18] = dose: 100.0 mg/kg/injection, schedule: Q04DX002 (ip), vehicle: saline

Measured: T/C

Cc1cc(NC(=O)Oc2ccccc2)ccc1S(=O)(=O)F
inactive: dose: 75.0 mg/kg/injection, schedule: Q01DX001 (ip), vehicle: steriod suspending solution 102 % of control | dose: 150.0 mg/kg/injection, schedule: Q01DX001 (ip), vehicle: steriod suspending solution 96 % of control | dose: 300.0 mg/kg/injection, schedule: Q01DX001 (ip), vehicle: steriod suspending solution 98 % of control

O=C(c1ccccc1CO)N1CCCCC1
inactive: dose: 100.0 mg/kg/injection, schedule: Q04DX002 (ip), vehicle: Klucel (hydroxypropylcellulose) (HPC) 112 % of control | dose: 200.0 mg/kg/injection, schedule: Q04DX002 (ip), vehicle: Klucel (hydroxypropylcellulose) (HPC) 105 % of control

CCOC(=O)NC(C(N)=O)C(N)=O
inactive: [1] 103 % of control | [2] 108 % of control | [3] 106 % of control

COc1cc(C(=O)O)c(C(=O)O)cc1OC
inactive: dose: 12.5 mg/kg/injection, schedule: Q01DX001 (ip), vehicle: Klucel (hydroxypropylcellulose) (HPC) 104 % of control | dose: 12.5 mg/kg/injection, schedule: Q01DX009 (ip), vehicle: saline 101 % of control | dose: 25.0 mg/kg/injection, schedule: Q01DX001 (ip), vehicle: Klucel (hydroxypropylcellulose) (HPC) 108 % of control | dose: 25.0 mg/kg/injection, schedule: Q01DX009 (ip), vehicle: saline 103 % of control | dose: 50.0 mg/kg/injection, schedule: Q01DX001 (ip), vehicle: Klucel (hydroxypropylcellulose) (HPC) 101 % of control | dose: 50.0 mg/kg/injection, schedule: Q01DX009 (ip), vehicle: saline 104 % of control | [4] 97 % of control | dose: 115.0 mg/kg/injection, schedule: Q01DX009 (ip), vehicle: Klucel (hydroxypropylcellulose) (HPC) 100 % of control | dose: 170.0 mg/kg/injection, schedule: Q01DX009 (ip), vehicle: Klucel (hydroxypropylcellulose) (HPC) 100 % of control | [5] 88 % of control

C=CCN1C(=O)C(CCCCCCCCCCCC)C(=O)NC1=S (stereo unspecified)
inactive: dose: 75.0 mg/kg/injection, schedule: Q01DX001 (ip), vehicle: other 101 % of control | dose: 150.0 mg/kg/injection, schedule: Q01DX001 (ip), vehicle: other 95 % of control | dose: 300.0 mg/kg/injection, schedule: Q01DX001 (ip), vehicle: other 90 % of control

CC(C)(C)C(=O)CC(=O)C(C)(C)C.CC(C)(C)C(=O)CC(=O)C(C)(C)C.CC(C)(C)C(=O)CC(=O)C(C)(C)C.CC(C)(C)C(=O)CC(=O)C(C)(C)C.[Hf]
inactive: [6] 100 % of control | [1] 97 % of control | [7] 100 % of control | [2] 97 % of control | dose: 400.0 mg/kg/injection, schedule: Q01DX009 (ip), vehicle: Klucel (hydroxypropylcellulose) (HPC) 100 % of control | [3] 100 % of control

Cc1cccc(NNC(N)=O)c1
inactive: dose: 55.0 mg/kg/injection, schedule: Q01DX Z (ip), vehicle: saline 103 % of control | dose: 83.0 mg/kg/injection, schedule: Q01DX Z (ip), vehicle: saline 97 % of control | dose: 125.0 mg/kg/injection, schedule: Q01DX Z (ip), vehicle: saline 101 % of control

O=C1c2ccccc2C(=O)c2[nH]ncc21
inactive: [8] 102 % of control | dose: 200.0 mg/kg/injection, schedule: Q04DX002 (ip), vehicle: saline with Tween-80 95 % of control | [9] 91 % of control

OC(CF)C(O)C(O)C(O)CF (stereo unspecified)
inactive: dose: 75.0 mg/kg/injection, schedule: Q01DX009 (ip), vehicle: saline 95 % of control | [10] 101 % of control | [11] 93 % of control | dose: 300.0 mg/kg/injection, schedule: Q01DX009 (ip), vehicle: saline 101 % of control | [12] 93 % of control

Clc1ccc2c(c1)Cc1cc(Cl)cc(Cl)c1-2
inactive: [1] 98 % of control | [2] 100 % of control | [3] 96 % of control

CCC(C(=O)OC)C(=O)c1ccccc1 (stereo unspecified)
inactive: [13] 107 % of control | [10] 102 % of control | [11] 107 % of control | [12] 96 % of control

COc1ccc(-c2nc(N)nc3c2CN(CCC(=O)O)C3=O)cc1
inactive: [10] 100 % of control | [11] 95 % of control | [12] 94 % of control

CC1OC2CCCCC2O1 (stereo unspecified)
inactive: dose: 50.0 mg/kg/injection, schedule: Q01DX009 (ip), vehicle: saline with Tween-80 97 % of control | dose: 100.0 mg/kg/injection, schedule: Q01DX009 (ip), vehicle: saline with Tween-80 97 % of control | dose: 200.0 mg/kg/injection, schedule: Q01DX009 (ip), vehicle: saline with Tween-80 94 % of control

CCOC(=O)C(C(=O)OCC)N(C(=O)C(Cl)Cl)c1ccccc1
inactive: [14] 97 % of control | [15] 96 % of control | dose: 400.0 mg/kg/injection, schedule: Q04DX003 (ip), vehicle: other 94 % of control

COC(=O)CCC(C)(C)[N+](=O)[O-]
inactive: dose: 100.0 mg/kg/injection, schedule: Q01DX009 (ip), vehicle: saline 113 % of control | dose: 200.0 mg/kg/injection, schedule: Q01DX009 (ip), vehicle: saline 104 % of control | dose: 400.0 mg/kg/injection, schedule: Q01DX009 (ip), vehicle: saline 102 % of control

O=COCCN(C=O)c1ccc(C(=O)O)cc1
inactive: [4] 92 % of control | dose: 150.0 mg/kg/injection, schedule: Q01DX009 (ip), vehicle: Klucel (hydroxypropylcellulose) (HPC) 87 % of control | dose: 300.0 mg/kg/injection, schedule: Q01DX009 (ip), vehicle: Klucel (hydroxypropylcellulose) (HPC) 88 % of control

CC(=O)Cc1nc(N)nc(Nc2ccc(Cl)c(Cl)c2)n1
inactive: dose: 100.0 mg/kg/injection, schedule: Q04DX003 (ip), vehicle: saline with Tween-80 91 % of control | dose: 200.0 mg/kg/injection, schedule: Q04DX003 (ip), vehicle: saline with Tween-80 96 % of control | dose: 400.0 mg/kg/injection, schedule: Q04DX003 (ip), vehicle: saline with Tween-80 96 % of control

CC(C)OC(=O)C(C)OC(=O)C1CCCCC1 (stereo unspecified)
inactive: [10] 98 % of control | [11] 97 % of control | [12] 93 % of control

COCCC(=O)COC
inactive: [13] 97 % of control | [10] 95 % of control | [11] 91 % of control | [12] 95 % of control

CCCCCCCCCCCCNNC(=O)OCCO
inactive: [10] 101 % of control | [11] 93 % of control

CC1CC2OC(=O)C(O)(CO)C2CC2(C)C(=O)C=CC12 (stereo unspecified)
inactive: [16] 102 % of control | [17] 124 % of control | [18] 120 % of control

N#CCCN(CCCN1CCOCC1)C(=S)Nc1cccc(C(F)(F)F)c1
inactive: [8] 92 % of control | [9] 100 % of control

CC1(C)C2CCC1(C)C(CO)C2 (stereo unspecified)
inactive: [14] 100 % of control | [15] 102 % of control

CCCC(N)C(=O)O (stereo unspecified)
inactive: dose: 100.0 mg/kg/injection, schedule: Q01DX001 (ip), vehicle: Klucel (hydroxypropylcellulose) (HPC) 106 % of control | dose: 200.0 mg/kg/injection, schedule: Q01DX001 (ip), vehicle: Klucel (hydroxypropylcellulose) (HPC) 103 % of control | [5] 95 % of control

Clc1nc(Cl)c(CBr)c(Cl)n1
inactive: dose: 1.0 mg/kg/injection, schedule: Q01DX Z (ip), vehicle: carboxymethylcellulose (CMC) 96 % of control | dose: 2.0 mg/kg/injection, schedule: Q01DX Z (ip), vehicle: carboxymethylcellulose (CMC) 96 % of control | dose: 4.0 mg/kg/injection, schedule: Q01DX Z (ip), vehicle: carboxymethylcellulose (CMC) 96 % of control | dose: 8.0 mg/kg/injection, schedule: Q01DX Z (ip), vehicle: carboxymethylcellulose (CMC) 94 % of control | dose: 10.0 mg/kg/injection, schedule: Q01DX001 (ip), vehicle: carboxymethylcellulose (CMC) 96 % of control | dose: 16.0 mg/kg/injection, schedule: Q01DX009 (ip), vehicle: carboxymethylcellulose (CMC) 103 % of control | dose: 20.0 mg/kg/injection, schedule: Q01DX001 (ip), vehicle: carboxymethylcellulose (CMC) 93 % of control | dose: 40.0 mg/kg/injection, schedule: Q01DX001 (ip), vehicle: carboxymethylcellulose (CMC) 93 % of control

CC(C)C(N)C(=O)NCCCCC(N)C(=O)O (stereo unspecified)
inactive: [16] 103 % of control | [17] 103 % of control | [18] 100 % of control

CCO/C=N\c1c(C#N)c(CC#N)nn1-c1ccccc1
inactive: dose: 50.0 mg/kg/injection, schedule: Q01DX009 (ip), vehicle: Klucel (hydroxypropylcellulose) (HPC) 100 % of control | [6] 91 % of control | [7] 100 % of control
